Data: patent US9593149B2, “Amylin and calcitonin receptor agonist” (Novo Nordisk A/S, priority 2014, dated 2017)
≈ marks a conversion by molar mass, not a printed value. Numbered stars: 1 amine (or outer) side, 2 acyl side, 3 side chain; on linkers, the order of the positions; unused ones are H or OH. Side chains are listed from the residue outwards. Peptide text beside a SMILES is read from it. * marks the point of attachment. C20 diacid = O=C(O)CCCCCCCCCCCCCCCCCCC(=O)*; C18 diacid = O=C(O)CCCCCCCCCCCCCCCCC(=O)*; γGlu = O=C(O)[C@H](CCC(=O)[*:2])N[*:1]

Experiments:
[1] = biological target: T1, human amylin 3(a) receptor (human calcitonin receptor + RAMP-3), BHK570 cells (Homo sapiens, UniProt O60896+P30988); assay: Assay (II)a functional CRE-luciferase assay with albumin, human amylin receptor; assay type: cell-based; settings: Tested with HSA; read-out: hAmylin-R funct. EC50
T1 construct: host or cells: BHK570
Source text: (§1) Assay(II)a—Human Calcitonin and Amylin Receptor Assay
(§2) 1. Luciferase Assay Outline
(§3) Activation of calcitonin and amylin (co-expression of calcitonin receptor and receptor activity modifying proteins (RAMP)) receptors lead to increased intracellular concentrations of cAMP. Consequently, transcription is activated by promoters containing multiple copies of the cAMP response element (CRE). It is thus possible to measure amylin activity by the use of a CRE luciferase reporter gene introduced into BHK cells also expressing calcitonin or amylin receptors.
(§4) 2. Construction of Calcitonin (a)—and Amylin 3(a)—Receptor/CRE-Luc Cell Line.
(§5) A BHK570 cell line was stably transfected with the human calcitonin receptor and a CRE-responsive luciferase reporter gene. The cell line was further transfected with RAMP-3, using standard methods. This turns the calcitonin receptor into an amylin 3(a) receptor. Methotrexate, Neomycin, and Hygromycin are selection markers for luciferase, the calcitonin receptor, and RAMP-3, respectively.
(§6) To perform activity assays, BHK calcitonin (a) receptor- or amylin 3(a)-receptor/CRE-luc cells were seeded in white 96 well culture plates at a density of about 20.000 cells/well. […] After incubation overnight at 37° C. and 5% CO2, the growth medium was replaced by 50 μl/well assay medium (DMEM (without phenol red), Glutamax™, 10% FBS, and 10 mM Hepes, pH 7.4). Further, 50 μl/well of standard or sample in assay buffer were added.
(§7) After 3 hours incubation at 37° C. and 5% CO2, the assay medium with standard or sample were removed and replaced by 100 μl/well PBS. Further, 100 μl/well LucLite™ was added. The plates were sealed and incubated at room temperature for 30 minutes. Finally, luminescence was tested on a TopCounter (Packard) in SPC (single photon counting) mode.

[2] = biological target: T2, human calcitonin (a) receptor, BHK570 cells (Homo sapiens, UniProt P30988); assay: Assay (II)a functional CRE-luciferase assay with albumin, human calcitonin receptor; assay type: cell-based; settings: Tested with HSA; read-out: hCTR funct. EC50
T2 construct: host or cells: BHK570
T2 sequence (P30988 25-474): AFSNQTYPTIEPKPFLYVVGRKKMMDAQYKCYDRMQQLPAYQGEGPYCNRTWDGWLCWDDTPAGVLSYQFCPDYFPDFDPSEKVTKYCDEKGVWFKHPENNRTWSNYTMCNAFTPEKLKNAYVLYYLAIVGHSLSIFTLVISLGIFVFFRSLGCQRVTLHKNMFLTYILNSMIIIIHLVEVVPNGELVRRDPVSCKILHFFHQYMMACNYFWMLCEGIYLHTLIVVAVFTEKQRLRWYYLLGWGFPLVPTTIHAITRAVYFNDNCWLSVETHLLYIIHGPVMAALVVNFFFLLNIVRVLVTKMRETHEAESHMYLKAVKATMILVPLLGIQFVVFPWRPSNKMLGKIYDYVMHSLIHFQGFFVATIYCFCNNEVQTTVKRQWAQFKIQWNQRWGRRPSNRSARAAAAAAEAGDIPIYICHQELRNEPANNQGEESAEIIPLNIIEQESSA
Source text: as §1, §2, §3, §4, §5, §6, §7

[3] = biological target: T1, human amylin 3(a) receptor (human calcitonin receptor + RAMP-3), BHK570 cells; assay: Assay (II)b functional CRE-luciferase assay without albumin, human amylin receptor; assay type: cell-based; settings: Tested without HSA; read-out: hAmylin-R funct. EC50
Method in brief: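 Agonism measured as CRE-driven luciferase luminescence after 3 h sample exposure at 37 °C, without albumin (0.1% ovalbumin, Hepes pH 7.4 medium). Reporter cells: BHK570 carrying human calcitonin receptor, co-transfected with RAMP-3 to form the amylin 3(a) receptor.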

[4] = biological target: T2, human calcitonin (a) receptor, BHK570 cells; assay: Assay (II)b functional CRE-luciferase assay without albumin, human calcitonin receptor; assay type: cell-based; settings: Tested without HSA; read-out: hCTR funct. EC50
Method in brief: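 BHK570 cells stably expressing human calcitonin receptor with CRE-luciferase reporter, plus RAMP-3 for the amylin 3(a) line. Cells stimulated 3 hours at 37 °C in albumin-free assay medium (0.1% ovalbumin, 10 mM Hepes pH 7.4); cAMP-driven luciferase read by luminescence.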

[5] = Assay (IV) determination of solubility; assay type: physicochemical
Method: Assay (IV)—Determination of Solubility
The mimylin peptide was dissolved in water at ˜500 nmol/ml and mixed 1:1 with a series of buffers (100 mM glycylglycine pH 3.0, 100 mM glycylglycine pH 4.0, 100 mM glycylglycine pH 5.0, 100 mM bistrispropane pH 6.0, 100 mM bistrispropane pH 6.5, 100 mM bistrispropane pH 7.0, 100 mM bistrispropane pH 7.5, 100 mM bistrispropane pH 8.0).

rat calcitonin receptor = biological target: T3, rat calcitonin receptor (Rattus norvegicus, UniProt P32214); assay: Assay (VIII) binding to the rat calcitonin receptor; settings: membranes; read-out: rCT-R binding IC50
T3 construct: expressed in transfected cells; host or cells: BHK tk'ts 13 (transient, FuGENE 6)
T3 sequence (P32214 25-479 isoform P32214-2 limits assumed): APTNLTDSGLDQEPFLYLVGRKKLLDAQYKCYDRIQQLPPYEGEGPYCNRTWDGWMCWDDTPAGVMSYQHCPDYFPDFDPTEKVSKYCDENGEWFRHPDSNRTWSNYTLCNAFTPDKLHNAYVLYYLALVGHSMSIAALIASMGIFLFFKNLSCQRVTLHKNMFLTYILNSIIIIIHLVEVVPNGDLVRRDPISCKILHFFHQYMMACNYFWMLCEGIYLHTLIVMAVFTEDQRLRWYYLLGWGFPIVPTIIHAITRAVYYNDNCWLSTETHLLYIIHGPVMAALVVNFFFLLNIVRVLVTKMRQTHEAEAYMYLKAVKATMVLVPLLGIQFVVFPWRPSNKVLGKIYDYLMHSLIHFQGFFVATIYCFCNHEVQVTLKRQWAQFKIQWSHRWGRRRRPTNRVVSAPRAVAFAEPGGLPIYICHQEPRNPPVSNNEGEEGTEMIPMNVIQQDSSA
Method in brief: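 Affinity given as IC50 from a one-site competition fit of bound radioactivity, counted by scintillation after cold HBSS washes and NaOH/SDS lysis. Membranes came from BHK tk'ts 13 cells transiently expressing the rat receptor; other conditions followed the human calcitonin receptor protocol.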

[6] = biological target: T4, human amylin receptor (human calcitonin receptor + human RAMP3), BHK tk'ts 13 cells (Homo sapiens, UniProt O60896+P30988); assay: Assay (Va) binding to the human amylin receptor (whole cell); settings: read-out: hAmylin-R binding IC50
T4 construct: expressed in transfected cells; host or cells: BHK tk'ts 13
Method: The day before the assay the cells were Seeded into Poly-D-Lysin coated 384W Opaque White, BD BioCoat plates (10000 cells/well) and Incubated overnight at 37° C., 5% CO2, 95% humidity.

T1 sequence (O60896 24-148, one chain of several): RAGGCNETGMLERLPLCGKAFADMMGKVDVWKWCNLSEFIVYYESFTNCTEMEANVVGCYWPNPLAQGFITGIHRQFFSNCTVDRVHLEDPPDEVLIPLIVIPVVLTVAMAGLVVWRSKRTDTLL
T4 sequence (O60896 24-148, one chain of several): as above

EC50 [1] [nM] | EC50 [2] [nM] | EC50 [3] [nM] | EC50 [4] [nM] | solubility at 18 h ([5]; bistrispropane buffer, pH 6.5) [µM] | solubility at 18 h ([5]; bistrispropane buffer, pH 7.5) [µM] | solubility at 18 h ([5]; bistrispropane buffer, pH 6.0) [µM] | solubility at 18 h ([5]; bistrispropane buffer, pH 7.0) [µM] | solubility at 18 h ([5]; bistrispropane buffer, pH 8.0) [µM] | solubility at 18 h ([5]; glycylglycine buffer, pH 3.0) [µM] | solubility at 18 h ([5]; glycylglycine buffer, pH 4.0) [µM] | solubility at 18 h ([5]; glycylglycine buffer, pH 5.0) [µM] | IC50 (rat calcitonin receptor) [nM] | IC50 [6] [nM] | SMILES
0.074 | 0.03 | 0.039 | 0.034 | ≥ 200 | ≥ 200 | ≥ 200 | ≥ 200 | ≥ 200 | ≥ 200 | ≥ 200 | ≥ 200 | 0.114 | – | CC(C)C[C@H](NC(=O)[C@H](C)NC(=O)[C@H](C)NC(=O)[C@@H](NC(=O)[C@H](CO)NC(=O)[C@H](CC(C)C)NC(=O)[C@H](CCCCNC(=O)CC[C@H](NC(=O)CCCCCCCCCCCCCCCCCCC(=O)O)C(=O)O)NC(=O)[C@H](CO)NC(=O)[C@H](C)N)[C@@H](C)O)C(=O)NCC(=O)N[C@@H](CCCNC(=N)N)C(=O)N[C@@H](CC(C)C)C(=O)N[C@@H](CO)C(=O)N[C@@H](C)C(=O)N[C@@H](CCC(=O)O)C(=O)N[C@@H](CC(C)C)C(=O)N[C@@H](Cc1c[nH]cn1)C(=O)N[C@@H](CCC(=O)O)C(=O)N[C@@H](CC(C)C)C(=O)N[C@@H](C)C(=O)N[C@H](C(=O)N[C@@H](CC(C)C)C(=O)N1CCC[C@H]1C(=O)N[C@@H](CCCNC(=N)N)C(=O)N[C@H](C(=O)N[C@@H](CCC(=O)O)C(=O)N[C@H](C(=O)NCC(=O)N[C@@H](CO)C(=O)NCC(=O)N[C@@H](CO)C(=O)N1CCC[C@H]1C(N)=O)[C@@H](C)O)[C@@H](C)O)[C@@H](C)O [compound 52, [des1, 4K(C20 diacid-gGlu), 30S, 31G]mimylin] (H-ASK([γGlu-C20 diacid])LSTAALGRLSAELHELATLPRTETGSGSP-NH2; N-terminus assumed)
0.019 | 0.009 | 0.033 | 0.028 | ≥ 200 | ≥ 200 | ≥ 200 | ≥ 200 | ≥ 200 | ≥ 200 | ≥ 200 | ≥ 200 | – | 0.653 | CC(C)C[C@H](NC(=O)[C@H](CCC(=O)O)NC(=O)[C@H](Cc1c[nH]cn1)NC(=O)[C@H](CC(C)C)NC(=O)[C@H](CCC(=O)O)NC(=O)[C@H](C)NC(=O)[C@H](CO)NC(=O)[C@H](CC(C)C)NC(=O)[C@H](CCCNC(=N)N)NC(=O)CNC(=O)[C@H](CC(C)C)NC(=O)[C@@H](NC(=O)[C@H](C)NC(=O)[C@@H](NC(=O)[C@@H](NC(=O)[C@H](CC(C)C)NC(=O)[C@H](CCC(=O)O)NC(=O)[C@H](CO)NC(=O)[C@H](C)NC(=O)CC[C@H](NC(=O)CCCCCCCCCCCCCCCCC(=O)O)C(=O)O)[C@@H](C)O)[C@@H](C)O)C(C)C)C(=O)N[C@@H](C)C(=O)N[C@H](C(=O)N[C@@H](CC(C)C)C(=O)N1CCC[C@H]1C(=O)N[C@@H](CCCNC(=N)N)C(=O)N[C@H](C(=O)N[C@@H](CCC(=O)O)C(=O)N[C@H](C(=O)NCC(=O)N[C@@H](CO)C(=O)NCC(=O)N[C@@H](CO)C(=O)N1CCC[C@H]1C(N)=O)[C@@H](C)O)[C@@H](C)O)[C@@H](C)O [compound 85, [N-terminal(C18 diacid-gGlu), des1, 6T, 9V, 30S, 31G]mimylin] ({C18 diacid-γGlu}-ASELTTAVLGRLSAELHELATLPRTETGSGSP-NH2)
0.052 | 0.049 | 0.022 | 0.024 | 1 (≈ 3.72 µg/mL) | – | – | – | – | ≥ 200 | 1 (≈ 3.72 µg/mL) | 2 (≈ 7.44 µg/mL) | – | 0.222 | CC(C)C[C@H](NC(=O)CNC(=O)[C@H](CO)NC(=O)[C@H](C)NC(=O)CCCCCCCCCCCCCCCCCCC(=O)O)C(=O)N[C@@H](CO)C(=O)N[C@H](C(=O)N[C@@H](C)C(=O)N[C@@H](C)C(=O)N[C@@H](CC(C)C)C(=O)NCC(=O)N[C@@H](CCCNC(=N)N)C(=O)N[C@@H](CC(C)C)C(=O)N[C@@H](CO)C(=O)N[C@@H](CCC(N)=O)C(=O)N[C@@H](CCC(=O)O)C(=O)N[C@@H](CC(C)C)C(=O)N[C@@H](Cc1c[nH]cn1)C(=O)N[C@@H](CCC(=O)O)C(=O)N[C@@H](CC(C)C)C(=O)N[C@@H](CCC(N)=O)C(=O)N[C@H](C(=O)N[C@@H](Cc1ccc(O)cc1)C(=O)N1CCC[C@H]1C(=O)N[C@@H](CCCNC(=N)N)C(=O)N[C@H](C(=O)N[C@@H](CCC(=O)O)C(=O)N[C@H](C(=O)NCC(=O)N[C@@H](CO)C(=O)NCC(=O)N[C@H](C(=O)N[C@@H](Cc1ccc(O)cc1)C(N)=O)[C@@H](C)O)[C@@H](C)O)[C@@H](C)O)[C@@H](C)O)[C@@H](C)O [compound 111, [N-terminal(C20 diacid), des1, 4G, 15Q, 21Q, 23Y, 30S, 31G, 32T, 33Y]mimylin] ({C20 diacid}-ASGLSTAALGRLSQELHELQTYPRTETGSGTY-NH2)
